According to BindingDB's records for patent US11214574 (Prelude Therapeutics, Incorporated, 2022):

Target: Methylosome protein 50/Protein arginine N-methyltransferase 5 (Homo sapiens, UniProt O14744+Q9BQA1)
Assay: Biochemical Assay
Protocol: Compounds were solubilized and 3-fold diluted in 100% DMSO. […] Standard reactions were performed in a total volume of 30 μl in assay buffer, with 300 nM histone H4 based AcH4-23 (Anaspec: AS-65002) as substrate. To this was added the PRMT5/MEP50 complex diluted to provide a final assay concentration of 2.5 nM and the compounds were allowed to preincubate for 20 minutes at 37° C. The reaction was initiated by adding S-[3H-methyl]-adenosyl-L-methionine (PerkinElmer: NET155001MC) to final concentration of 1 μM. Following a 30 minutes incubation at 37° C., the reaction was stopped by adding 25 μL of 8M Guanidine HCl. Prepare streptavidin YSI SPA beads (Perkinelmer: RPNQ0012) at 0.3 mg/mL in assay buffer. To each reaction, add 150 μL of SPA beads suspension, and incubated while shaking at room temperature for 30 minutes. The plate was centrifuged at 100×g for 30 second before reading in a scintillation counter. IC50 values were determined by fitting the data to the standard 4 parameters with Hill Slope using GraphPad Prism software.

Chain of Methylosome protein 50/Protein arginine N-methyltransferase 5 (O14744 whole entry): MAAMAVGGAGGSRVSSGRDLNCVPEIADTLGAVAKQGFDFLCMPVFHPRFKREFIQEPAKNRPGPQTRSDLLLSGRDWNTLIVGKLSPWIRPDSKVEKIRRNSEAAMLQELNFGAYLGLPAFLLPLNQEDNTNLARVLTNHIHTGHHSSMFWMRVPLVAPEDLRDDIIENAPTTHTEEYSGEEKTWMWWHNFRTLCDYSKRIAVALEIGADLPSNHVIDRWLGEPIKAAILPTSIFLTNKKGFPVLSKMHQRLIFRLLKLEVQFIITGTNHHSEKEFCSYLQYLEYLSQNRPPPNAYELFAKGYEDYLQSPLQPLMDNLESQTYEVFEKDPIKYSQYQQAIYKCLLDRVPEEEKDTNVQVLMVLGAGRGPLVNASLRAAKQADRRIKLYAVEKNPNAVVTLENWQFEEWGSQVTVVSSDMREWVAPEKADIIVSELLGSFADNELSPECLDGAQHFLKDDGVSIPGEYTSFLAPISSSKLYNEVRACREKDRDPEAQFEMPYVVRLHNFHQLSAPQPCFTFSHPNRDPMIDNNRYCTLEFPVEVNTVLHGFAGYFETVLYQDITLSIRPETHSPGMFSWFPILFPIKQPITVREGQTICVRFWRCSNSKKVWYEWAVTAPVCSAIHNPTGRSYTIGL
Chain of Methylosome protein 50/Protein arginine N-methyltransferase 5 (Q9BQA1 whole entry): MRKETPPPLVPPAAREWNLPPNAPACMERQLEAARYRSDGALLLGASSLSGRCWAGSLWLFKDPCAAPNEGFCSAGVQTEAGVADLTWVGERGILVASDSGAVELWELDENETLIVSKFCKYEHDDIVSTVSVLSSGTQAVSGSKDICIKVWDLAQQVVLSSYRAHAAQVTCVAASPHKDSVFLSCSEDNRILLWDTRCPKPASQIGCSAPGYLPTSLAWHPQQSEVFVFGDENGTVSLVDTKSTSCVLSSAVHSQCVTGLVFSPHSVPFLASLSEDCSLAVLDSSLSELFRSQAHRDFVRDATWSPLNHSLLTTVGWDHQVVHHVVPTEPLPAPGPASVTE

IC50: 270 nM
SMILES: Nc1ncnc2c1ccn2[C@@H]1O[C@H]([C@H]2OC(=O)c3cc(Cl)ccc32)[C@@H](O)[C@H]1O [US11214574, Ex# 1B]
